Source: the SangsterLogP compilation

Experiment: method code SF-AS, from DOI: 10.1021/jf00107a040

| Structure (SMILES) | logP |
| --- | --- |
| CCCCCOC(=O)Nc1ccccc1 | 3.8 |
| NC(=O)Nc1ccc(Oc2ccccc2)cc1 | 2.8 |
| Cc1cccc(NC(N)=O)c1 | 1.29 |
| Cc1cc(N)ccc1Br | 2.53 |
| CCOC(=O)Nc1ccccc1 | 2.26 |
| Cc1ccc(NC(=O)N(C)C)cc1Cl | 2.41 |
| CN(C)C(=O)Nc1cccc(C(F)(F)F)c1 | 2.42 |
| CCCCOC(=O)Nc1ccccc1 | 3.3 |
| CCCOC(=O)Nc1ccccc1 | 2.8 |
| CNC(=O)Nc1ccccc1 | 1.17 |
| CC(=O)Nc1ccc(Br)cc1 | 2.14 |
| CC(C)OC(=O)Nc1ccccc1 | 2.6 |
| O=C(Nc1ccccc1)NC1CCCCC1 | 2.77 |
| O=C(Nc1ccccc1)NC1CCCC1 | 2.65 |
| O=[N+]([O-])c1ccc(Br)cc1 | 2.6 |
| O=C(Nc1ccccc1)NC1CC1 | 1.65 |
| O=C(Nc1ccccc1)NC1CCCCCC1 | 2.95 |
| CC(=O)Nc1cccc(C(F)(F)F)c1 | 2.2 |
| CON(C)C(=O)Nc1ccc(Br)c(Cl)c1 | 3.09 |

Second part, the compound after the results:

| logP | Structure (SMILES) |
| --- | --- |
| 1.64 | COc1ccc(NC(=O)N(C)C)cc1Cl |
| 2.01 | CN(C)C(=O)Nc1cccc(Cl)c1 |
| 1.37 | COc1ccc(NC(N)=O)cc1Cl |
| 0.83 | COc1ccc(NC(=O)N(C)C)cc1 |
| 1.59 | Cc1cc(NC(N)=O)ccc1F |
| 2.18 | CNC(=O)Nc1cccc(Cl)c1 |
| 1.52 | CC(=O)Nc1cccc(C)c1 |
| 2.04 | CC(=O)Nc1cccc(Br)c1 |
| 1.33 | Cc1ccc(NC(=O)N(C)C)cc1 |
| 1.37 | CN(C)C(=O)Nc1cccc(F)c1 |
| 1.82 | COc1ccc(NC(C)=O)cc1Cl |
| 1.76 | CNC(=O)Nc1ccc(OC)c(Cl)c1 |
| 2.61 | CNC(=O)Nc1ccc(C)c(Cl)c1 |
| 1.13 | CN(C)C(=O)Nc1ccc(F)cc1 |
| 1.9 | Cc1cc(C)cc(NC(=O)N(C)C)c1 |
| 1.46 | CC(=O)Nc1cccc(F)c1 |
| 2.92 | Cc1cc(NC(=O)N(C)C)cc(C)c1Br |
| 1.73 | COc1cccc(NC(=O)N(C)C)c1 |
| 2.49 | Cc1cc(NC(N)=O)ccc1Br |
| 2.02 | CC(=O)Nc1cccc(Cl)c1 |

Experiment: method code SF-GLC, from DOI: 10.1021/jf00107a040

| Structure (SMILES) | logP |
| --- | --- |
| NC(=O)Nc1ccc(Br)cc1 | 1.98 |
| NC(=O)Nc1cccc(Br)c1 | 2.08 |
| NC(=O)Nc1cccc(F)c1 | 1.29 |
| NC(=O)Nc1cccc(C(F)(F)F)c1 | 2.31 |
| NC(=O)Nc1ccccc1F | 0.88 |
| NC(=O)Nc1ccc(F)cc1 | 1.04 |
| NC(=O)Nc1ccccc1Cl | 1.27 |

Further lines, results first:

| logP | Structure (SMILES) |
| --- | --- |
| 1.85 | COc1ccc(N)cc1Cl |
| 3.09 | COC(=O)Nc1ccc(Cl)c(Cl)c1 |
| 2.94 | CNC(=O)Nc1ccc(Cl)c(Cl)c1 |
| 2.64 | NC(=O)Nc1ccc(Cl)c(Cl)c1 |
| 1.82 | NC(=O)Nc1cccc(Cl)c1 |

Experiment: method code SF-RC, from DOI: 10.1021/jf00107a040

| Structure (SMILES) | logP |
| --- | --- |
| CNC(=O)ON=CC(C)(C)S(C)(=O)=O | -0.57 |
